In ChEMBL document CHEMBL1614629, “Extrapolation of human pharmacokinetic parameters from rat, dog, and monkey data: Molecular properties associated with extrapolative success or failure” (J Pharm Sci, 2005):

Tests used:
[1] = Volume of distribution at steady state in rat after iv administration; type: ADME, organism-based; details: in vivo
[2] = Volume of distribution at steady state in dog after iv administration; type: ADME, organism-based, Canis lupus familiaris; details: in vivo, read-out: Vdss
[3] = Volume of distribution at steady state in monkey after iv administration; type: ADME, organism-based; details: macaca, in vivo, read-out: Vdss
[4] = Volume of distribution at steady state in human after iv administration; type: ADME, organism-based; details: in vivo, read-out: Vdss
[5] = Clearance in rat after iv administration; type: ADME, organism-based; details: in vivo
[6] = Clearance in dog after iv administration; type: ADME, organism-based, Canis lupus familiaris; details: in vivo
[7] = Clearance in monkey after iv administration; type: ADME, organism-based; details: macaca, in vivo
[8] = Clearance in human after iv administration; type: ADME, organism-based; details: in vivo

SMILES | Vdss [1] | Vd [2] | Vd [3] | Vd [4] | clearance [5] | clearance [6] | clearance [7] | clearance [8]
CO[C@@]1(NC(=O)CSC(F)F)C(=O)N2C(C(=O)O)=C(CSc3nnnn3CCO)CO[C@@H]21 [FLOMOXEF] | 0.23 L/kg | 0.32 L/kg | 0.3 L/kg | 0.52 L/kg |  |  |  | 
O=c1[nH]cnc2c1ncn2[C@H]1CC[C@@H](CO)O1 [DIDANOSINE] | 0.99 L/kg | 0.95 L/kg | 0.92 L/kg | 0.81 L/kg | 66 mL/min/kg | 23 mL/min/kg | 12 mL/min/kg | 14 mL/min/kg
CO/N=C(\C(=O)N[C@@H]1C(=O)N2C(C(=O)O)=CCS[C@H]12)c1csc(N)n1 [CEFTIZOXIME] | 0.18 L/kg | 0.1 L/kg | 0.12 L/kg | 0.23 L/kg | 19 mL/min/kg | 3.3 mL/min/kg | 5.9 mL/min/kg | 1.8 mL/min/kg
CN1C(C(=O)Nc2nccs2)=C(O)c2ccccc2S1(=O)=O [SUDOXICAM] | 0.2 L/kg | 0.2 L/kg | 0.2 L/kg | 0.2 L/kg |  |  |  | 
O=C1NC(=O)C(c2ccccc2)(c2ccccc2)N1 [PHENYTOIN] | 0.64 L/kg | 1 L/kg | 7.8 L/kg | 1.4 L/kg | 7.4 mL/min/kg | 2.8 mL/min/kg | 7.9 mL/min/kg | 0.57 mL/min/kg
O=c1ccc2ccccc2o1 [COUMARIN] | 1.3 L/kg | 6.5 L/kg | 4.5 L/kg | 2.2 L/kg | 20 mL/min/kg | 22 mL/min/kg | 34 mL/min/kg | 17 mL/min/kg
CO/N=C(\C(=O)N[C@@H]1C(=O)N2C(C(=O)[O-])=C(C[n+]3ccn4ncccc43)CS[C@H]12)c1nsc(N)n1 [CEFOZOPRAN] | 0.2 L/kg | 0.21 L/kg | 0.2 L/kg | 0.27 L/kg | 9.4 mL/min/kg | 3 mL/min/kg | 1.9 mL/min/kg | 1.5 mL/min/kg
C[C@@H](O)[C@H]1C(=O)N2C(C(=O)O)=C(SCCOC(N)=O)S[C@H]12 [Sch-34343] | 0.17 L/kg | 0.22 L/kg | 0.17 L/kg | 0.34 L/kg |  |  |  | 
CN1CCN(c2c(F)cc3c(=O)c(C(=O)O)cn(CCF)c3c2F)CC1 [FLEROXACIN] | 1.3 L/kg | 1.3 L/kg | 1.2 L/kg | 1.5 L/kg | 5.7 mL/min/kg | 1.6 mL/min/kg | 4 mL/min/kg | 2.4 mL/min/kg
CC#CCC(C)[C@H](O)/C=C/[C@@H]1[C@H]2C/C(=C/CCCC(=O)O)C[C@H]2C[C@H]1O (stereo partly specified) [ILOPROST] | 0.8 L/kg | 0.9 L/kg | 0.9 L/kg | 0.4 L/kg | 32 mL/min/kg | 67 mL/min/kg | 58 mL/min/kg | 17 mL/min/kg
COCCOC(=O)C1=C(C)NC(C)=C(C(=O)OC(C)C)C1c1cccc([N+](=O)[O-])c1 (stereo unspecified) [NIMODIPINE] | 0.96 L/kg | 3.2 L/kg | 3.6 L/kg | 0.9 L/kg | 56 mL/min/kg | 34 mL/min/kg | 33 mL/min/kg | 14 mL/min/kg
COc1cccc2c1C(=O)c1c(O)c3c(c(O)c1C2=O)C[C@@](O)(C(=O)CO)C[C@@H]3O[C@H]1C[C@H](N)[C@H](O)[C@H](C)O1 [DOXORUBICIN] | 25 L/kg | 44 L/kg | 24 L/kg | 25 L/kg | 34 mL/min/kg | 17 mL/min/kg | 28 mL/min/kg | 17 mL/min/kg
CC(=O)CC(c1ccccc1)c1c(O)c2ccccc2oc1=O (stereo unspecified) [WARFARIN] | 0.22 L/kg | 0.28 L/kg | 0.11 L/kg | 0.11 L/kg | 0.36 mL/min/kg | 0.3 mL/min/kg | 0.13 mL/min/kg | 0.04 mL/min/kg
CC1(C)O[C@@H]2C[C@H]3[C@@H]4C[C@H](F)C5=CC(=O)C=C[C@]5(C)[C@H]4[C@@H](O)C[C@]3(C)[C@]2(C(=O)CO)O1 [FLUNISOLIDE] | 3 L/kg | 3.7 L/kg | 4 L/kg |  | 8.8 mL/min/kg | 12.9 mL/min/kg | 19 mL/min/kg | 12 mL/min/kg
NC(=O)c1csc([C@@H]2O[C@H](CO)[C@@H](O)[C@H]2O)n1 [TIAZOFURIN] | 2.5 L/kg | 0.9 L/kg | 2 L/kg | 0.9 L/kg |  |  |  | 
CO/N=C(\C(=O)N[C@@H]1C(=O)N2C(C(=O)O)=C(CSc3nc(C)c(CC(=O)O)s3)CS[C@H]12)c1csc(N)n1 [CEFODIZIME] | 0.18 L/kg | 0.26 L/kg | 0.15 L/kg | 0.15 L/kg | 1.1 mL/min/kg | 4.1 mL/min/kg | 1.2 mL/min/kg | 0.73 mL/min/kg
COc1ccc2c(c1)c(CC(=O)O)c(C)n2C(=O)c1ccc(Cl)cc1 [INDOMETHACIN] | 0.1 L/kg | 7.4 L/kg | 1.8 L/kg | 0.26 L/kg | 0.43 mL/min/kg | 0.002 mL/min/kg | 13 mL/min/kg | 2 mL/min/kg
O=C(c1ccccc1)c1ccc2n1CCC2C(=O)O (stereo unspecified) [KETOROLAC] | 0.56 L/kg | 0.33 L/kg | 0.09 L/kg |  | 3.6 mL/min/kg | 1.3 mL/min/kg | 0.6 mL/min/kg | 
CC(C)n1c(/C=C/C(O)CC(O)CC(=O)O)c(-c2ccc(F)cc2)c2ccccc21 (stereo unspecified) [FLUVASTATIN] | 1 L/kg | 0.7 L/kg | 3.7 L/kg | 0.42 L/kg |  |  |  | 

SMILES | Vdss [1] | Vd [2] | Vd [3] | Vd [4] | clearance [5] | clearance [6] | clearance [7] | clearance [8]
N[C@@H](Cc1ccc(O)c(O)c1)C(=O)O [LEVODOPA] | 9.8 L/kg | 0.4 L/kg | 0.47 L/kg | 1.7 L/kg | 109 mL/min/kg | 19 mL/min/kg | 17 mL/min/kg | 23 mL/min/kg
CO/N=C(\C(=O)N[C@@H]1C(=O)N2C(C(=O)[O-])=C(C[N+]34CCC(C(N)=O)(CC3)CC4)CS[C@H]12)c1nsc(N)n1 [CEFCLIDIN] | 0.22 L/kg | 0.23 L/kg | 0.28 L/kg | 0.17 L/kg | 8.8 mL/min/kg | 3.6 mL/min/kg | 3.4 mL/min/kg | 1.5 mL/min/kg
CC(=N)N1CC[C@H](SC2=C(C(=O)O)N3C(=O)[C@H]([C@@H](C)O)[C@H]3C2)C1 | 0.19 L/kg | 0.22 L/kg | 0.3 L/kg | 0.18 L/kg | 28 mL/min/kg | 4.9 mL/min/kg | 6.5 mL/min/kg | 3.1 mL/min/kg
O=C(O)Cc1ccccc1Nc1c(Cl)cccc1Cl [DICLOFENAC] | 0.75 L/kg | 0.23 L/kg | 0.17 L/kg | 0.17 L/kg | 9.4 mL/min/kg | 1.6 mL/min/kg | 8.7 mL/min/kg | 4.2 mL/min/kg
O=P1(N(CCCl)CCCl)NCCCO1 (stereo unspecified) [CYCLOPHOSPHAMIDE ANHYDROUS] | 0.8 L/kg | 0.7 L/kg | 1.3 L/kg | 0.7 L/kg | 12 mL/min/kg | 20 mL/min/kg | 20 mL/min/kg | 2.6 mL/min/kg
CN1CCC[C@H]1c1cccnc1 [NICOTINE] | 4.7 L/kg | 3.3 L/kg | 1.5 L/kg |  | 66 mL/min/kg | 42 mL/min/kg | 14 mL/min/kg | 19 mL/min/kg
COC(=O)[C@H]1[C@@H](OC(=O)c2ccccc2)C[C@@H]2CC[C@H]1N2C [COCAINE] | 16 L/kg | 3.8 L/kg | 7.4 L/kg |  | 260 mL/min/kg | 102 mL/min/kg | 64 mL/min/kg | 32 mL/min/kg
Cc1cn([C@H]2C[C@H](N=[N+]=[N-])[C@@H](CO)O2)c(=O)[nH]c1=O [ZIDOVUDINE] |  | 1 L/kg | 1 L/kg |  | 46 mL/min/kg | 14 mL/min/kg | 15 mL/min/kg | 24 mL/min/kg
N=C(N)c1ccc(C(=O)N[C@@H](Cc2ccc(O)cc2)C(=O)N2CCC(OCC(=O)O)CC2)cc1 [LAMIFIBAN] | 0.24 L/kg | 0.75 L/kg | 0.29 L/kg | 0.29 L/kg |  |  |  | 
N=C(N)N1CCC[C@@H](CNC(=O)C[C@H](NS(=O)(=O)c2ccc3ccccc3c2)C(=O)N(CC(=O)O)C2CC2)C1 [NAPSAGATRAN ANHYDROUS] | 0.62 L/kg | 0.69 L/kg | 0.26 L/kg | 0.32 L/kg |  |  |  | 
COC(=O)C1=C(C)NC(C)=C(C(=O)OCCN(C)Cc2ccccc2)C1c1cccc([N+](=O)[O-])c1 (stereo unspecified) [NICARDIPINE] | 1.3 L/kg | 1.3 L/kg | 1.9 L/kg | 0.64 L/kg |  |  |  | 
CC(C)NCC(O)COc1cccc2ccccc12 (stereo unspecified) [PROPRANOLOL] | 5.3 L/kg | 1.7 L/kg | 0.6 L/kg | 3.6 L/kg |  |  | 14 mL/min/kg | 15 mL/min/kg
CN(Cc1cnc2nc(N)nc(N)c2n1)c1ccc(C(=O)N[C@@H](CCC(=O)O)C(=O)O)cc1 [METHOTREXATE] | 0.4 L/kg |  | 1.2 L/kg | 0.67 L/kg | 12 mL/min/kg | 1.2 mL/min/kg | 8 mL/min/kg | 2.5 mL/min/kg
COCCc1ccc(OCC(O)CNC(C)C)cc1 (stereo unspecified) [METOPROLOL] | 7 L/kg | 4.5 L/kg | 3 L/kg |  | 185 mL/min/kg | 23 mL/min/kg | 30 mL/min/kg | 15 mL/min/kg
Cn1cc(/C=C2/C(=O)N3C(C(=O)O)=CS[C@H]23)nn1 | 1.3 L/kg | 0.32 L/kg | 0.27 L/kg | 0.28 L/kg |  |  |  | 
Cn1c(=O)c2c(ncn2C)n(C)c1=O [CAFFEINE] | 0.92 L/kg | 0.76 L/kg | 0.83 L/kg | 0.73 L/kg |  | 2.1 mL/min/kg | 3.1 mL/min/kg | 2 mL/min/kg
CC(C)(C)S(=O)(=O)C[C@@H](Cc1ccccc1)C(=O)N[C@@H](Cc1cnc[nH]1)C(=O)N[C@@H](CC1CCCCC1)[C@@H](O)[C@@H](O)C1CC1 | 4.4 L/kg | 1.5 L/kg | 1.7 L/kg | 0.84 L/kg |  | 25 mL/min/kg | 20 mL/min/kg | 10 mL/min/kg
C[C@]12C=CC(=O)C=C1CC[C@@H]1[C@@H]2C(=O)C[C@@]2(C)[C@H]1CC[C@]2(O)C(=O)CO [PREDNISONE] | 1.4 L/kg | 2.1 L/kg | 1.6 L/kg |  | 163 mL/min/kg | 27 mL/min/kg | 13 mL/min/kg | 3.6 mL/min/kg
